Converted amounts (≈) assume the structure as drawn. “Also recorded” adds a separate entry of the source. Where two headings read alike, the source gives them in different places.
Columns and labels:
[1] = tested on: HCT116-oxaliplatin resistant cells; assay: MTT growth inhibition and Chou-Talalay combination index with oxaliplatin; format: cell-based; design: key to Effect: affected fraction (Fa) from MTT absorbance, 0-1; details: for CI values in combination with oxaliplatin: fixed and non-fixed ratio combination treatments, in many instances
Experimental: The software Calcusyn was utilized for analysis of drug interactions using the Chou-Talalay combination index method (Chou, T.-C. Drug Combination Studies and Their Synergy Quantification Using the Chou-Talalay Method. [Cancer Res. 70, 440-446 (2010)]
The affected fractions were calculated from the SRB or MTT assay absorbance values and were registered to derive the respective CI values and isobolograms. A CI value of less than 1 (one) indicates synergy.
MIT assay. Individual drug treatments and combinations were carried out as with the SRB assay. The MTT assay was carried out as previously (see Cytotoxicity studies sections) with the difference that it was completed in 96 h.

[2] = Aqueous solubility (MultiScreen Solubility Filter Plate, shake-flask based)
Experimental: Aqueous solubility of Compounds of the Invention was measured with a modified version of the MultiScreen Solubility Filter Plate protocol (Millipore). This assay was based on the shake-flask equilibrium method and utilizes UV-Vis spectroscopy to quantify the unknown samples. The assay was conducted at room temperature at pH 7.4. […] Compound of the Invention was dissolved in DMSO, and the final DMSO concentration was 5% (v/v). Each sample was analyzed by UV-Vis spectroscopy at 10 nm increments from 260-600 nm to determine the optimal wavelength for detection and construct standard curves. […] A 4:1 mixture of supernatant to acetonitrile was added to a 96-well acrylic plate and analyzed by UV-Vis spectroscopy.
Aqueous solubility was measured with a modified version of the MultiScreen Solubility Filter Plate protocol (Millipore). This assay is based on the shake-flask equilibrium method and utilizes UV-Vis spectroscopy to quantify the unknown samples. The assay is conducted at room temperature at pH 7.4. […] Each compound was dissolved in DMSO, and the final DMSO concentration was 5% (v/v). Each sample was analyzed by UV-Vis spectroscopy at 10 nm increments from 260-600 nm to determine the optimal wavelength for detection and construct standard curves. […] A 4:1 mixture of supernatant to acetonitrile was added to a 96-well acrylic plate and analyzed by UV-Vis spectroscopy.

B16 (melanoma) cells = assay: MTT cytotoxicity assay, B16 cells
pStat3^Tyr705 = assay: Immunoblotting of phosphorylated Stat3 in cancer cells; format: cell-based, human; details: for persistence of pStat3 inhibition post treatment: DU145 and A549, after 18 h treatment and drug removal; for inhibition of Stat3 tyrosine (705) phosphorylation (pStat3): DU145 and A549 cells with constitutively active Stat3, 18 h; for concentrations at which pSTAT3 is inhibited: cells with persistent Stat3 activation
Experimental: (§1) Whole cell lysates were prepared by incubation of harvested, trypsinised cells with CelLytic™ lysis buffer (Sigma-Aldrich) supplemented with 1× protease and 1× phosphatase inhibitors (Roche). Protein quantification was carried out using a protein assay kit (Bio-Rad). 40 μg of the lysates were denatured by heating for 5 min at 95° C. in sample buffer containing 100 mM Tris-Cl (pH 6.8), 4% SDS, 10% 2-mercaptoethanol, 20% glycerol, and 0.02% bromophenol blue. Precision Plus Protein Dual colour standards (Bio-Rad) were used as a molecular weight reference. For the detection of STAT3, pSTAT3, α/β tubulin, cleaved PARP, Bcl-2, Bcl-xL, FANCD2, BRCA1, EME1 and MUS81, proteins were separated on a NuPAGE 7% Tris-acetate gel (Life Technologies) and subsequently transferred to polyvinylidene difluoride membranes (Immobilon®-P transfer membrane; Millipore). […] Membranes were blocked for 1 h at ambient temperature in a blocking buffer containing 5% w/v Bovine Serum Albumin (BSA; Sigma-Aldrich) in 1×TBS, 0.1% Tween-20. All proteins were identified by incubation in a 1:1000 dilution of the respective polyclonal antibodies (Cell signaling) in blocking buffer overnight at 4° C. and subsequent incubation for 1 h with an anti-rabbit or anti-mouse secondary antibody (Cell signalling) at a dilution of 1:1000. The α/β tubulin (1:2000; Cell Signaling) and the anti-phospho-histone H2AX Antibody (1:500; Millipore) were used in the denoted dilutions. Antibody binding was visualized by enhanced chemiluminescence (Amersham) on autoradiography film (Kodak-X-Omat). Alternatively Images were captured by the GelDoc-It Imaging System Fusion Fx7 (Vilber Lourmat, Germany).
as §1, with “Immunoblotting. Whole” for “Whole”, “CelLytic™ M” for “CelLytic™”, “pSTAT3, a/0” for “pSTAT3, α/β”, “in 1×TBS” for “in 1×TBS,”, “(Cell signalling)” for “(Cell signaling)”

[3] = IE-8 2.0 μM 1 h, then oxaliplatin 0.1 μM 96 h
[4] = IE-8 2.0 μM 1 h, then oxaliplatin 1.0 μM 96 h
[5] = IE-8 2.0 μM 1 h, then oxaliplatin 10.0 μM 96 h
[6] = IE-8 2.0 μM 1 h, then oxaliplatin 20.0 μM 96 h
[7] = IE-8 2.0 μM 1 h, then oxaliplatin 40.0 μM 96 h
[8] = IE-8 2.0 μM 1 h, then oxaliplatin 60.0 μM 96 h
[9] = IE-8 2.0 μM 1 h, then oxaliplatin 80.0 μM 96 h
[10] = IE-8 2.0 μM 1 h, then oxaliplatin 100.0 μM 96 h
[11] = IE-8 2.0 μM 1 h, then oxaliplatin 200.0 μM 96 h
[12] = IE-8 2.5 μM 1 h, then oxaliplatin 0.1 μM 96 h
[13] = IE-8 2.5 μM 1 h, then oxaliplatin 1.0 μM 96 h
[14] = IE-8 2.5 μM 1 h, then oxaliplatin 10.0 μM 96 h
[15] = IE-8 2.5 μM 1 h, then oxaliplatin 20.0 μM 96 h
[16] = IE-8 2.5 μM 1 h, then oxaliplatin 40.0 μM 96 h
[17] = IE-8 2.5 μM 1 h, then oxaliplatin 60.0 μM 96 h
[18] = IE-8 2.5 μM 1 h, then oxaliplatin 80.0 μM 96 h
[19] = IE-8 2.5 μM 1 h, then oxaliplatin 100.0 μM 96 h
[20] = IE-8 2.5 μM 1 h, then oxaliplatin 200.0 μM 96 h
[21] = IE-8 3.0 μM 1 h, then oxaliplatin 0.1 μM 96 h
[22] = IE-8 3.0 μM 1 h, then oxaliplatin 1.0 μM 96 h
[23] = IE-8 3.0 μM 1 h, then oxaliplatin 10.0 μM 96 h
[24] = IE-8 3.0 μM 1 h, then oxaliplatin 20.0 μM 96 h
[25] = IE-8 3.0 μM 1 h, then oxaliplatin 40.0 μM 96 h
[26] = IE-8 3.0 μM 1 h, then oxaliplatin 60.0 μM 96 h
[27] = IE-8 3.0 μM 1 h, then oxaliplatin 80.0 μM 96 h
[28] = IE-8 3.0 μM 1 h, then oxaliplatin 100.0 μM 96 h
[29] = IE-8 3.0 μM 1 h, then oxaliplatin 200.0 μM 96 h
[30] = oxaliplatin 1.0 μM 1 h, 3 h later IE-8 1.0 μM until 96 h
[31] = oxaliplatin 10.0 μM 1 h, 3 h later IE-8 1.0 μM until 96 h
[32] = oxaliplatin 20.0 μM 1 h, 3 h later IE-8 1.0 μM until 96 h
[33] = oxaliplatin 40.0 μM 1 h, 3 h later IE-8 1.0 μM until 96 h
[34] = oxaliplatin 60.0 μM 1 h, 3 h later IE-8 1.0 μM until 96 h
[35] = oxaliplatin 80.0 μM 1 h, 3 h later IE-8 1.0 μM until 96 h
[36] = oxaliplatin 200.0 μM 1 h, 3 h later IE-8 1.0 μM until 96 h
[37] = oxaliplatin 400.0 μM 1 h, 3 h later IE-8 1.0 μM until 96 h

## 3,5-Di(3,4,5-trimethoxybenzylidene)-1-phenylpiperidin-4-one [IE-8]
[1]
  CI values in combination with oxaliplatin: < 1
[2]; pH 7.4, room temperature, 5% DMSO, free base
  Solubility in aqueous buffer: 200 ± 30 µM
B16 (melanoma) cells; read-out: IC50 (μM) B16, 72 h exposure, MTT, mean of three independent experiments
  IC50: ~0.3 µM
pStat3^Tyr705
  persistence of pStat3 inhibition post treatment: at least 24 h
  inhibition of Stat3 tyrosine (705) phosphorylation (pStat3): efficiently inhibits
pStat3^Tyr705; 18 h
  concentrations at which pSTAT3 is inhibited: > 1 μM

## COc1cc(/C=C2\CN(c3ccccc3)C/C(=C\c3cc(OC)c(OC)c(OC)c3)C2=O)cc(OC)c1OC [IE-8, 3,5-Di(3,4,5-trimethoxybenzylidene)-1-phenylpiperidin-4-one]
[1]; [3]
  CI-value: 1.558
  Effect: 0.1065
[1]; [4]
  CI-value: 1.979
  Effect: 0.0954
[1]; [5]
  CI-value: 2.754
  Effect: 0.1575
[1]; [6]
  CI-value: 1.58
  Effect: 0.315
[1]; [7]
  CI-value: 1.172
  Effect: 0.4676
[1]; [8]
  CI-value: 1.135
  Effect: 0.5256
[1]; [9]
  CI-value: 0.827
  Effect: 0.6386
[1]; [10]
  CI-value: 0.7749
  Effect: 0.678
[1]; [11]
  CI-value: 0.4016
  Effect: 0.8582
[1]; [12]
  CI-value: 0.721
  Effect: 0.5165
[1]; [13]
  CI-value: 1.405
  Effect: 0.2143
[1]; [14]
  CI-value: 1.985
  Effect: 0.231
[1]; [15]
  CI-value: 1.805
  Effect: 0.313
[1]; [16]
  CI-value: 0.8326
  Effect: 0.6087
[1]; [17]
  CI-value: 0.8009
  Effect: 0.6559
[1]; [18]
  CI-value: 0.5921
  Effect: 0.76
[1]; [19]
  CI-value: 0.7993
  Effect: 0.7021
[1]; [20]
  CI-value: 0.4777
  Effect: 0.855
[1]; [21]
  CI-value: 0.8489
  Effect: 0.527
[1]; [22]
  CI-value: 1.924
  Effect: 0.171
[1]; [23]
  CI-value: 1.573
  Effect: 0.3259
[1]; [24]
  CI-value: 1.453
  Effect: 0.4064
[1]; [25]
  CI-value: 0.7871
  Effect: 0.6743
[1]; [26]
  CI-value: 0.8214
  Effect: 0.6878
[1]; [27]
  CI-value: 0.5584
  Effect: 0.8108
[1]; [28]
  CI-value: 0.48
  Effect: 0.8527
[1]; [29]
  CI-value: 0.4763
  Effect: 0.877
[1]
  CI values in combination with oxaliplatin: < 1
[1]; [30]
  CI-value: 5.476
  Effect: 0.2692
[1]; [31]
  CI-value: 1.482
  Effect: 0.6799
[1]; [32]
  CI-value: 0.9954
  Effect: 0.7838
[1]; [33]
  CI-value: 0.5439
  Effect: 0.8908
[1]; [34]
  CI-value: 0.5183
  Effect: 0.897
[1]; [35]
  CI-value: 0.4279
  Effect: 0.9184
[1]; [36]
  CI-value: 0.3786
  Effect: 0.93
[1]; [37]
  CI-value: 0.488
  Effect: 0.9045
[2]; aqueous buffer with 5% DMSO, pH 7.4, aqueous with cosolvent or surfactant or cyclodextrin, kinetic from dmso stock
  solubility at 6 h: 200 ± 30 µM (≈ 106 µg/mL)
B16 (melanoma) cells; Mus musculus, B16, 72 h, read-out: IC50 (μM) B16, 72 h exposure, MTT, mean of three independent experiments
  IC50: 0.3 µM
pStat3^Tyr705; A2780-cisplatin resistant cells, 18 h
  inhibition of IL-6 induced pStat3: the most potent inhibitor in this series; also recorded: efficiently inhibited
pStat3^Tyr705; DU145, 5 μM, 1 h
  pStat3 inhibition after acute treatment: sufficient to inhibit pStat3
pStat3^Tyr705
  persistence of pStat3 inhibition post treatment: at least 24 h
  inhibition of Stat3 tyrosine (705) phosphorylation (pStat3): inhibits pStat3^Tyr705 levels without affecting the total Stat3 levels; also recorded: efficiently inhibited
pStat3^Tyr705; HCT116-oxaliplatin resistant cells, 18 h
  inhibition of constitutively active Stat3 (pStat3): the most potent among these inhibitors; also recorded: efficiently inhibited the constitutively active Stat3
pStat3^Tyr705; HCT116-oxaliplatin resistant or A2780-cisplatin resistant spheroids
  pStat3 inhibition in 3D spheroids: inhibition of pStat3; also recorded: efficiently inhibited
pStat3^Tyr705; 18 h
  concentrations at which pSTAT3 is inhibited: > 1 μM

From US11964943B2, “3,5-diarylidenyl-n-substituted-piperid-4-one-derived inhibitors of Stat3 pathway activity and uses thereof” (priority 2017, dated 2024)
